Reference: patent publication US20130064815A1, “INDUCING APOPTOSIS IN QUIESCENT CELLS” (THE TRUSTEES OF PRINCETON UNIVERSITY, priority 2011, published 2013)
Where a SMILES comes first, the peptide text is derived from it. The star is where a group is joined. Cbz = O=C(OCc1ccccc1)*

How the values were obtained:
[1] = test system: primary human fibroblasts; test: caspase 3/7 activity apoptosis assay (ApoTox-Glo) in proliferating and quiescent fibroblasts; format: cell-based; conditions: MG132 0 to 10 μM; proliferating and serum-starved cells
Protocol: Referring to FIG. 2A, primary human fibroblasts were tested either in a proliferating state or after being induced into quiescence. Quiescence may be induced by either contact inhibition or serum starvation. Cells were treated with DHEA for four days, with bafilomycin added on the fourth day. Apoptosis was assessed based on the activity of caspase 3/7 for a fluorogenic substrate.
PPP inhibition and apoptosis analysis: Apoptosis was measured based on the levels of caspase 3/7 released into the media using the ApoTox-Glo Triplex Assay according to the manufacturer's instructions (Promega Corp., Madison, Wis.). Cells were plated in triplicate at 10,000 cells per well in white-walled, clear-bottom 96-well plates (Costar, Corning Life Sciences, Lowell, Mass.). For contact inhibition, cells were plated 7 days prior to the start of treatment, for serum starvation cells were plated 4 days prior to treatment and switched to 0.1% serum media for the remaining 3 days, while proliferating cells were plated the day prior to the start of treatment. […] Cells in serum starvation conditions were incubated in 0.1% serum during treatment as well. The apoptosis reagent was added at 100 μl per well and incubated for 1 h prior to reading. Luminescence was read from the top using a Synergy-2 plate reader (Biotek, Winooski, Vt.). Luminescence data were normalized to the vehicle only condition.
Apoptosis induction was assessed by monitoring caspase 3/7 activity using a luminescent caspase substrate. This assay is optimized for high-throughput screening in 96-well plates and allows multiple concentrations and combination of drugs to be tested in triplicate at different time points. […] Therefore, this assay was used to compare proliferating and serum-starved cells only.

[2] = test system: proliferating and quiescent fibroblasts; test: annexin V / PI flow cytometry after proteasome inhibition; format: cell-based, human; conditions: for cells with signs of apoptosis: highest dose (10 μM)
Protocol: (§1) To elucidate the responses of proliferating and quiescent fibroblasts to proteasome inhibition, the effects of known proteasome inhibitors on proliferating and quiescent fibroblasts were examined.
(§2) At the highest dose (10 μM), approximately 50% of proliferating cells were apoptotic (FIG. 24A-lower right (Q4), upper right (Q2), and upper left (Q1) quadrants represent early apoptosis, late apoptosis, and very late apoptosis or necrosis, respectively). In comparison, quiescent fibroblasts were largely unaffected by MG132 treatment, showing far lower levels of apoptosis.

[3] = as above; format: cell-based, human; conditions: human
Protocol: as §1, §2

[4] = test system: MnSOD; test: MnSOD expression after MG132 (microarray, Western blot); format: cell-based, human
Description: (§3) Other researchers have reported that there is a correlation between proliferative status and sensitivity to oxidative stress in human fibroblasts (Naderi et al., 2003, “Oxidative stress-induced apoptosis in dividing fibroblasts involves activation of p38 MAP kinase and over-expression of Bax: resistance of quiescent cells to oxidative stress, Apoptosis 8, 91-100, which is incorporated herein by reference as if fully set forth). […] A Western blot analysis was used to monitor the levels of the ROS detoxifying enzymes MnSOD and catalase, an enzyme that converts hydrogen peroxide to water and oxygen. The protein concentrations of MnSOD and catalase were higher in quiescent fibroblasts than in proliferating cells (FIG. 26B), consistent with a previous report (Sarsour et al., 2008, “Manganese superoxide dismutase activity regulates transitions between quiescent and proliferative growth, Aging cell 7, 405-417, which is incorporated herein by reference as if fully set forth). […] It was hypothesized that the higher levels of ROS-detoxifying enzymes in quiescent fibroblasts contributes to the protection of quiescent fibroblasts from proteasome inhibition-induced apoptosis. Intracellular superoxide levels were monitored using dihydroethidium (DHE), an indicator of superoxide anions.

[5] = test system: superoxide; test: intracellular superoxide levels with dihydroethidium (DHE); format: cell-based, human; conditions: proteasome inhibition
Description: as §3

[6] = test system: LC3-II; test: LC3-II immunoblot (autophagy / autophagic flux); format: cell-based, human; conditions: MG132 treatment; proliferating, contact-inhibited and serum-starved states
Protocol: The levels of autophagy components—Atg5/Atg12, Atg7, Atg3, and LC3-I and LC3-II—were monitored in proliferating and contact-inhibited fibroblasts using immunoblotting (FIG. 21A). As a positive control for autophagy induction, samples of cells in each cell cycle state were also incubated in Kreb's Ringer Bicarbonate solution (KRB), a protocol that induces autophagy through amino acid starvation and elimination of other nutrients except glucose. Levels of Atg5/Atg12, Atg7, and LC3-II were elevated in all of the amino acid starvation and contact-inhibition states as compared to the proliferating state (FIG. 21A). Atg3 was induced in all quiescent states compared with proliferating states, including amino acid starvation. In order to differentiate whether the high levels of autophagy proteins resulted from a blockade of autophagy degradation or active flux through the pathway, we monitored the levels of LC3-II in proliferating and 7 dCI fibroblasts in the presence of bafilomycin A1 (Baf-A1). Baf-A1 is a vacuolar-type H^+-ATPase inhibitor that prevents autophagosome fusion with the lysosome due to an increase in lysosomal pH. […] This finding is consistent with active autophagic flux in quiescent fibroblasts
In addition to its role in providing amino acids and energy under starvation conditions, autophagy is involved in maintenance of cellular homeostasis and resistance to tumorigenesis through degradation of old or damaged proteins and entire organelles. It was hypothesized that autophagy in contact-inhibited cells could function to degrade old and/or damaged proteins that would otherwise accumulate in the cytoplasm due to lack of cell division as a mechanism for dilution of these proteins. Oxidation of proteins causes the formation of carbonyl groups on amino acids, and carbonylation can disrupt protein function. To monitor the extent of protein oxidation in proliferating and contact-inhibited fibroblasts, the protein carbonyl groups were derivatized using 2,4-dinitrophenylhydrazine (DNP), and monitored using immunoblotting with an antibody that recognizes the covalently added DNP. The levels of oxidized proteins in proliferating and 7 dCI fibroblasts were monitored in cells that were either competent to perform autophagy (control), or were stably expressing an shRNA against the essential autophagy components Atg5 (sh-Atg5) or Atg7 (sh-Atg7), which are known to represent autophagy-defective phenotypes in other model systems. […] In contact-inhibited fibroblasts, in contrast, the levels of oxidized proteins increased 1.5-fold±0.1 in 7 dCI sh-Atg5 fibroblasts as compared to vector control counterparts (p=0.009) (FIG. 22B). […]
To test this hypothesis, the levels of an autophagy-specific form of the LC3 protein, LC3 II, were monitored compared to a housekeeping protein (Klionsky et al., 2008, “Guidelines for the use and interpretation of assays for monitoring autophagy in higher eukaryotes,” Autophagy 4, 151-175, which is incorporated herein by reference as if fully set forth). […]
We observed an increase in the ratio of LC3 II to GAPDH in response to MG132 treatment for cells in proliferating, contact-inhibited and serum-starved states (FIG. 25B). To test whether the high levels of LC3 II in quiescent cells in response to MG132 treatment result from a blockade of autophagy degradation or from active flux through the pathway, LC3 II levels were monitored in proliferating and quiescent fibroblasts treated with MG132 in the presence or absence of bafilomycin A1 (Baf). […]

For `CC(C)C[C@@H](C=O)NC(=O)[C@H](CC(C)C)NC(=O)[C@H](CC(C)C)NC(=O)OCc1ccccc1` [MG132] (Cbz-Leu-Leu-Leu-aldehyde), the “caspase 3/7 activity” value [1] was “dose-dependent increases”, the “viability, quiescent vs proliferating fibroblasts” value ([2]; 48 hours of treatment) was “significantly higher number of quiescent fibroblasts maintained viability” and the “cells with signs of apoptosis” value ([2]; contact-inhibited fibroblasts, 24 hours) was “approximately 14%”. For the same molecule, the “apoptotic cells (annexin V and PI)” value ([2]; proliferating cells, 10 μM, 24 hours) was “approximately 50%”, the “proliferating cell viability (fraction PI negative)” value ([2]; proliferating cells, 24 hours) was “statistically significant, dose-dependent decrease” and the quiescent cell viability ([2]; quiescent cells, 24 hours, up to 10 μM MG132, 1 μM epoxomicin) was “maintained high viability”. For the same molecule, the “cells with signs of apoptosis” value ([2]; serum-starved fibroblasts, 24 hours) was roughly 10%, the cytotoxicity at 24 h, 10 μM [3] was roughly 50% and the MnSOD protein levels ([4]; Western blot, proliferating and quiescent fibroblasts) was “further elevated MnSOD levels”. The MnSOD transcript expression ([4]; microarray, proliferating and quiescent cells) was “induced MnSOD expression”, the superoxide levels ([5]; proliferating cells) was “significant induction of superoxide levels” and the superoxide levels ([5]; quiescent cells) was “maintained basal superoxide levels”. The “ratio of LC3 II to GAPDH” value [6] was “increase”.
